In patent US20210177023A1, “COMPOUNDS FOR SWEETNESS ENHANCEMENT” (International Flavors & Fragrances Inc., priority 2019, published 2021):

Assays:
Type in all cases: in vivo, human
[1] = Enhancement of sucrose sweetness (flavor profile of sucrose solution with added substance); conditions: sucrose solution (4%); for effect observed in sucrose solution: compound 5 ppm; for overall effect when used with sucrose (summary in text): over the levels tested
Method: A sucrose solution (4%) was prepared in water. Each of ligustrosidic acid and 2′-hydroxy ligustrosidic acid solutions of different concentrations was prepared in ethanol solution in water (50%). Ligustrosidic acid and 2′-hydroxy ligustrosidic acid were evaluated at 1 and 200 ppm, respectively. […] Solutions of Chaenomeles speciosa leave extract containing ligustrosidic acid (0.61%), 2′-hydroxy ligustrosidic acid (0.62%), verbascoside (0.69%) and isoverbascoside (0.21%) were prepared in ethanol solution in water (50%) to obtain a series of concentrations ranging from 1 to 1000 ppm. Solutions of sucrose (4%) and Luo Han Guo (120 ppm) were prepared as above (EXAMPLE II and III). In addition, solutions of fructose (3.4%), Reb A (GLG Life Tech Corporation, Canada) (90 ppm) and GSG (Glucosyl Steviol Glucosides, GLG Life Tech Corporation, Canada) (200 ppm) were also prepared in water. The sucrose solution (4%) with the addition of various amount of Chaenomeles speciosa leave extract was evaluated. […] Each of verbascoside and isoverbascoside solutions of different concentrations was prepared in ethanol solution in water (50%). Verbascoside and isoverbascoside were evaluated at 1 and 200 ppm, respectively.

[2] = Taste and smell of the compound alone
Method: A sucrose solution (4%) was prepared in water. Each of ligustrosidic acid and 2′-hydroxy ligustrosidic acid solutions of different concentrations was prepared in ethanol solution in water (50%). Ligustrosidic acid and 2′-hydroxy ligustrosidic acid were evaluated at 1 and 200 ppm, respectively. […] A sucrose solution (4%) was prepared in water. Each of verbascoside and isoverbascoside solutions of different concentrations was prepared in ethanol solution in water (50%). Verbascoside and isoverbascoside were evaluated at 1 and 200 ppm, respectively.

[3] = Enhancement of Luo Han Guo sweetness (flavor profile of Luo Han Guo solution with added substance); conditions: Luo Han Guo solution (120 ppm), over the levels tested
Method: A Luo Han Guo (Biovittoria Ltd., New Zealand) solution was prepared in water (120 ppm). Ligustrosidic acid and 2′-hydroxy ligustrosidic acid solutions were prepared as above (EXAMPLE II). The flavor profile of the Luo Han Guo solution with added ligustrosidic acid and 2′-hydroxy ligustrosidic acid is reported in the following: The effect of botanical extract such as Chaenomeles speciosa leave extract on sweetness was examined. Solutions of Chaenomeles speciosa leave extract containing ligustrosidic acid (0.61%), 2′-hydroxy ligustrosidic acid (0.62%), verbascoside (0.69%) and isoverbascoside (0.21%) were prepared in ethanol solution in water (50%) to obtain a series of concentrations ranging from 1 to 1000 ppm. Solutions of sucrose (4%) and Luo Han Guo (120 ppm) were prepared as above (EXAMPLE II and III). In addition, solutions of fructose (3.4%), Reb A (GLG Life Tech Corporation, Canada) (90 ppm) and GSG (Glucosyl Steviol Glucosides, GLG Life Tech Corporation, Canada) (200 ppm) were also prepared in water. The Luo Han Guo solution (120 ppm) with the addition of various amount of Chaenomeles speciosa leave extract was evaluated. The flavor profile is as follows: A Luo Han Guo (Biovittoria Ltd., New Zealand) solution was prepared in water (120 ppm). Verbascoside and isoverbascoside solutions were prepared as above (EXAMPLE XIII). The flavor profile of the Luo Han Guo solution with added verbascoside and isoverbascoside is reported in the following: […]

Molecule | effect observed in sucrose solution [1] | taste and smell of the compound itself ([2]; evaluated at 1 ppm) | overall effect when used with sucrose (summary in text) [1] | overall effect when used with Luo Han Guo (summary in text) [3] | taste and smell of the compound itself ([2]; evaluated at 200 ppm) | also measured
C/C=C1\C(OC2OC(CO)C(O)C(O)C2O)OC=C(C(=O)OCCc2ccc(O)c(O)c2)C1CC(=O)OCCc1ccc(O)c(O)c1 (stereo not shown) [multifloroside] | Some mouthfeel, slight drying or slightly fruity effect |  |  |  |  | 
COC(=O)C1=COC(OC2OC(CO)C(O)C(O)C2O)C(=CC(=O)O)C1CC(=O)OCCc1ccc(O)cc1 (stereo in doubt) [Ligustrosidic Acid, [3-(carboxymethylene)-2-(β-D-glucopyranosyloxy)-3,4-dihydro-5-(methoxycarbonyl)]-2H-pyran-4-acetic acid-α-[2-(4-hydroxyphenyl)ethyl] ester] |  | devoid of taste and smell |  |  |  | overall effect when used with sucrose (summary in text) ([1]; listed as Ligustrosidic acid): particularly strong effect; overall effect when used with sucrose (summary in text) ([1]; listed as ligustrosidic acid): enhanced overall sweetness, body and mouthfeel; overall effect when used with Luo Han Guo (summary in text) ([3]; listed as Ligustrosidic acid): particularly strong effect; overall effect when used with Luo Han Guo (summary in text) ([3]; listed as ligustrosidic acid): enhanced overall sweetness, body and mouthfeel
C/C=C1/[C@H](O[C@@H]2O[C@H](CO)[C@@H](O)[C@H](O)[C@H]2O)OC=C(C(=O)OC)[C@H]1CC(=O)OCCc1ccc(O)cc1 [ligustroside] | Some mouthfeel, slight drying or slightly fruity effect |  |  |  |  | 
C[C@@H]1O[C@@H](O[C@@H]2[C@@H](O)[C@H](OCCc3ccc(O)c(O)c3)O[C@H](CO)[C@H]2OC(=O)/C=C/c2ccc(O)c(O)c2)[C@H](O)[C@H](O)[C@H]1O [Verbascoside, (E)-2-(3,4-dihydroxyphenyl)ethyl 3-O-(6-deoxy-α-L-mannopyranosyl)-4-[3-(3,4-dihydroxyphenyl)-2-propenoate]-β-D-Glucopyranoside] |  | devoid of taste and smell | particular effect in sweetness enhancement | particular effect in sweetness enhancement |  | 
2′-hydroxy ligustrosidic acid |  |  | strong effect in sweetness enhancement | strong effect in sweetness enhancement | devoid of taste and smell | 
C[C@@H]1O[C@@H](O[C@@H]2[C@@H](O)[C@H](OCCc3ccc(O)c(O)c3)O[C@H](COC(=O)/C=C/c3ccc(O)c(O)c3)[C@H]2O)[C@H](O)[C@H](O)[C@H]1O [Isoverbascoside, isoverbascoside] |  |  | enhanced overall mouthfeel | enhanced overall mouthfeel and suppressed Luo Han Guo's lingering off-taste | devoid of taste and smell | 
